# Assay results: patent US20210107942A1, “TISSUE PROTECTIVE PEPTIDES AND PEPTIDE ANALOGS FOR PREVENTING AND TREATING DISEASES AND DISORDERS ASSOCIATED WITH TISSUE DAMAGE” (Araim Pharmaceuticals, Inc., priority 2013, published 2021)
# Experiments:
# [1] = tested on: cancer cachexia, Yoshida hepatoma AH-130 cells; assay: Cachexia model (Yoshida hepatoma AH-130 inoculated rats); assay type: in vivo, Male Wistar Han rats; settings: rat, daily 0.17 or 1.7 μg/kg/d, vs saline placebo
# Description: Male Wistar Han rats aged 8 weeks with an approximate weight of 200 g were inoculated intraperitoneally with 10^8 Yoshida hepatoma. AH-130 cells. Body weight and body composition were assessed before tumor inoculation and on the day of sacrifice. Quality of life indicators (spontaneous activity, food and water intake) were measured on day 0 and on day 10/11. Tumor cells were counted at the last day of the study. Rats were treated daily with either (1) low dose (0.17 μg/kg/d) RYLLEAKEAENITTG (SEQ ID NO:1), (2) high dose (1.7 μg/kg/d) RYLLEAKEAENITTG (SEQ ID NO:1), or (3) or normal saline (placebo) (n=22). Body composition of animals was analyzed using an EchoMRI-700 (Echo Medical Systems, Houston, Tex., USA). The analysis of the body structures was based on Nuclear Magnetic Resonance. Spontaneous activity was measured by an infrared scanner over 24 hours using Supermex activity monitoring system (Muromachi Kikai Co., LTD., Tokyo, Japan).
# [2] = tested on: histamine induced wheal (edema by intradermal histamine injection); assay: Histamine induced wheal formation; assay type: in vivo, Sprague-Dawley rats; settings: rat, 30 mcg/kg intravenously shortly after intradermal histamine, area at fifteen minutes, vs placebo; FIG. 2
# Description: Under isofiurane anesthesia, 12 Sprague-Dawley rats' abdomens were shaved and depilated. Each rat was then injected intravenously (via internal jugular) with a dilute solution or Evans Blue (30 mg/ml in saline, 1 mg/kg bw). After 5 minutes, 6 small doses of histamine (histamine diphosphate, 20 microliters administered intradermally) in a rectangular pattern on each rat's abdomen. After fifteen minutes, when the wheal reaches its maximum size the wheal is photographed and the blister area was determined by digital planimetry. To test the efficacy of a peptide, RYLLEAKEAENITTG (SEQ ID NO:1) or placebo, was administered to the rats intravenously shortly after the histamine injection, at a dose of 30 mcg/kg.
# sciatic nerve injury = assay: Sciatic nerve injury assay (static sciatic index from toe spread); assay type: in vivo, Sprague-Dawley rats; settings: rat, 50 mcg/kg into the caudal vein after nerve stretch injury, toe splaying over next four days, vs PBS; FIG. 1
# Description: RYLLEAKEAENITTG (SECS ID NO:1) was tested for tissue protective activity using a sciatic nerve injury assay, Sprague-Dawley rats (250-300 grams) (six per group, including control) were anesthetized using isoflurane. The rat was then placed on a homeothermic blanket to ensure that the core temperature of the rat was maintained at 35-37° C. during the operation. Core temperature was monitored via a rectal probe. The right sciatic nerve of the anesthetized rat was exposed at mid thigh through a quadriceps muscle dissection; a 2 cm incision with a 15 blade scalpel was made through the skin parallel and over the quadriceps muscle and the quadriceps muscle was cut to expose the sciatic nerve using a pair of dissecting scissors. […]
# Over the next four days the rear toe splaying of the rats was determined by placing the rat in an acrylic tube with a diameter of 30 cm on the scanning surface of a digital scanner. […] From the scans, the Toe Spread (the distance between the ball of the first toe and the ball of the fifth toe) and the Intermediate Toe Spread (the distance between the ball of the second toe and the ball of the fourth toe were measured. The static sciatic index (SSI) was then computed in accordance with S. Erbayraktar et al., 2003, Proc. Natl. Acad Sci USA 100, 6741-6746 (hereby incorporated by reference in its entirety) and statistical analysis performed.
sequence,measurement,setting,value
"RYLLEAKEAENITTG (peptide that have tissue protective activity) [tissue protective peptide of 15 amino acids derived from erythropoietin, made by Fmoc solid phase synthesis]",loss of lean mass,"[1]; EchoMRI, FIG. 3C",reduced loss of lean mass
same,physical activity (spontaneous activity),"[1]; infrared scanner over 24 hours, FIG. 3D",increased physical activity
same,weight loss,[1]; FIG. 3A,reduced weight loss
same,epididymal fat,[1]; FIG. 3B,preserved epididymal fat
same,wheal area,[2],significantly reduced
same,"sciatic nerve injury (static sciatic index, SSI)",sciatic nerve injury,reduces sciatic nerve injury
